Measured values taken from PubChem BioAssay AID330 (DTP/NCI, 2004).
Several values for one entry are separate records, joined by “and”; a condition that tells them apart may be missing. Equal entries are not always repeated. Toxic doses and inconclusive results are not listed. The calls were made as follows: active = survival T/C of 150% or more; inactive = T/C below 125% in these data.

System: P388 leukemia ip, CD2F1 mice, survival T/C
Test: NCI In Vivo Anticancer Drug Screen. Data for tumor model P388 Leukemia (intraperitoneal) in CD2F1 (CDF1) mice
Settings: endpoint: median survival time, higher = longer survival
Procedure, shortened: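 Mice carrying the transplanted tumor received test compound or vehicle. Survival was recorded in each group, and the value is the treated-group measurement divided by that of the vehicle-treated control group.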

[1] = dose: 50.0 mg/kg/injection, schedule: Q01DX005 (ip), vehicle: saline with Tween-80
[2] = dose: 100.0 mg/kg/injection, schedule: Q01DX005 (ip), vehicle: saline with Tween-80
[3] = dose: 60.0 mg/kg/injection, schedule: Q01DX005 (ip), vehicle: saline
[4] = dose: 120.0 mg/kg/injection, schedule: Q01DX005 (ip), vehicle: saline
[5] = dose: 240.0 mg/kg/injection, schedule: Q01DX005 (ip), vehicle: saline
[6] = dose: 60.0 mg/kg/injection, schedule: Q01DX005 (ip), vehicle: saline with Tween-80
[7] = dose: 120.0 mg/kg/injection, schedule: Q01DX005 (ip), vehicle: saline with Tween-80
[8] = dose: 200.0 mg/kg/injection, schedule: Q01DX009 (ip), vehicle: saline with Tween-80
[9] = dose: 400.0 mg/kg/injection, schedule: Q01DX009 (ip), vehicle: saline with Tween-80
[10] = dose: 25.0 mg/kg/injection, schedule: Q01DX009 (ip), vehicle: other
[11] = dose: 240.0 mg/kg/injection, schedule: Q01DX005 (ip), vehicle: saline with Tween-80

Measured: T/C

CCCCN(CCCC)C(=N)c1ccccc1Cl
inactive: dose: 6.25 mg/kg/injection, schedule: Q01DX005 (ip), vehicle: Klucel (hydroxypropylcellulose) (HPC) 103 % of control | dose: 12.5 mg/kg/injection, schedule: Q01DX005 (ip), vehicle: Klucel (hydroxypropylcellulose) (HPC) 99 % of control

CCCCNC(=O)c1cc(NC(=O)c2ccc(C(=O)Nc3cc(C(=O)NCCCC)cc(C4N=CCN4)c3)cc2)cc(C2=NCCN2)c1 (stereo unspecified)
inactive: [1] 94 % of control | [2] 95 % of control

CCCC[n+]1c(/C=C\c2c(OC)cc(OC)cc2OC)ccc2ccccc21
inactive: dose: 0.19 mg/kg/injection, schedule: Q01DX009 (ip), vehicle: Klucel (hydroxypropylcellulose) (HPC) 115 % of control | dose: 0.39 mg/kg/injection, schedule: Q01DX009 (ip), vehicle: Klucel (hydroxypropylcellulose) (HPC) 115 % of control and 122 % of control | dose: 0.78 mg/kg/injection, schedule: Q01DX009 (ip), vehicle: Klucel (hydroxypropylcellulose) (HPC) 105 % of control

CS(=O)(=O)N/N=C1/C=C2C/C(=N\NS(C)(=O)=O)C=C2C1
inactive: dose: 50.0 mg/kg/injection, schedule: Q01DX005 (ip), vehicle: Klucel (hydroxypropylcellulose) (HPC) 92 % of control | dose: 100.0 mg/kg/injection, schedule: Q01DX005 (ip), vehicle: Klucel (hydroxypropylcellulose) (HPC) 96 % of control | dose: 200.0 mg/kg/injection, schedule: Q01DX005 (ip), vehicle: Klucel (hydroxypropylcellulose) (HPC) 95 % of control

Cc1c(C(=O)NCCN(C)C)n(C)c(=O)c2ccccc12
inactive: [3] 98 % of control | [4] 93 % of control | [5] 94 % of control

S=c1ncnc2cc3[nH][nH]cc3cc12
inactive: [1] 90 % of control | [2] 86 % of control | dose: 200.0 mg/kg/injection, schedule: Q01DX005 (ip), vehicle: saline with Tween-80 92 % of control

COc1ccc(/C=C/C(=O)C(C)(C)CN(C)CCN(C)C)cc1
inactive: [6] 100 % of control | [7] 109 % of control

O=[N+]([O-])c1ccc(N/N=C/c2ccc(Cl)cc2)nc1
inactive: dose: 6.25 mg/kg/injection, schedule: Q01DX009 (ip), vehicle: Klucel (hydroxypropylcellulose) (HPC) 87 % of control | dose: 12.5 mg/kg/injection, schedule: Q01DX009 (ip), vehicle: Klucel (hydroxypropylcellulose) (HPC) 89 % of control | dose: 25.0 mg/kg/injection, schedule: Q01DX009 (ip), vehicle: Klucel (hydroxypropylcellulose) (HPC) 91 % of control | dose: 50.0 mg/kg/injection, schedule: Q01DX009 (ip), vehicle: Klucel (hydroxypropylcellulose) (HPC) 91 % of control | dose: 100.0 mg/kg/injection, schedule: Q01DX009 (ip), vehicle: Klucel (hydroxypropylcellulose) (HPC) 98 % of control | dose: 200.0 mg/kg/injection, schedule: Q01DX009 (ip), vehicle: Klucel (hydroxypropylcellulose) (HPC) 105 % of control and 89 % of control | [8] 91 % of control and 93 % of control | [9] 112 % of control

O=C(COP(=O)(OCC(=O)Oc1ccc([N+](=O)[O-])cc1)Oc1ccc([N+](=O)[O-])cc1)Oc1ccc([N+](=O)[O-])cc1
inactive: [10] 102 % of control | dose: 50.0 mg/kg/injection, schedule: Q01DX009 (ip), vehicle: other 98 % of control | dose: 100.0 mg/kg/injection, schedule: Q01DX009 (ip), vehicle: other 93 % of control | dose: 200.0 mg/kg/injection, schedule: Q01DX009 (ip), vehicle: other 91 % of control | dose: 400.0 mg/kg/injection, schedule: Q01DX009 (ip), vehicle: other 108 % of control

COc1ccc(NC(=O)CCCC(=O)CC(=O)c2ccc(Cl)cc2)c(OC)c1
inactive: [6] 109 % of control | [7] 103 % of control | [11] 101 % of control

CN(C)C(=S)/N=c1\ss/c(=N/C(=S)N(C)C)n1-c1ccc([N+](=O)[O-])cc1
inactive: dose: 6.25 mg/kg/injection, schedule: Q01DX009 (ip), vehicle: saline with Tween-80 102 % of control | dose: 12.5 mg/kg/injection, schedule: Q01DX009 (ip), vehicle: saline with Tween-80 103 % of control | dose: 25.0 mg/kg/injection, schedule: Q01DX009 (ip), vehicle: saline with Tween-80 103 % of control

O=c1[nH]c2c(c3c1CCCC3)CC1(CC2)OCCO1
inactive: dose: 100.0 mg/kg/injection, schedule: Q04DX002 (ip), vehicle: Klucel (hydroxypropylcellulose) (HPC) 105 % of control | dose: 200.0 mg/kg/injection, schedule: Q04DX002 (ip), vehicle: Klucel (hydroxypropylcellulose) (HPC) 100 % of control | dose: 400.0 mg/kg/injection, schedule: Q04DX002 (ip), vehicle: Klucel (hydroxypropylcellulose) (HPC) 108 % of control

CC1(C)OC(CC(=O)O)C23COC(C(=O)C4(C)C2CCC2(C)C(c5ccoc5)OC(=O)C5OC524)C13 (stereo unspecified)
inactive: dose: 0.75 mg/kg/injection, schedule: Q01DX009 (ip), vehicle: saline + alcohol 106 % of control | dose: 1.5 mg/kg/injection, schedule: Q01DX009 (ip), vehicle: saline + alcohol 99 % of control | dose: 3.0 mg/kg/injection, schedule: Q01DX009 (ip), vehicle: saline + alcohol 101 % of control | dose: 6.0 mg/kg/injection, schedule: Q01DX009 (ip), vehicle: saline + alcohol 101 % of control

Cn1c2ccccc2c(=O)c2c(O)cc3c(c21)N=CC(C)(C)O3
inactive: [6] 96 % of control | [7] 93 % of control | [11] 93 % of control

CC1OC(Oc2ccc3c(=O)c(-c4ccc(O)cc4)coc3c2)C(O)C(O)C1O (stereo unspecified)
inactive: [6] 103 % of control | [7] 103 % of control | [11] 103 % of control

S=C(N/N=C/c1c[nH]c2ccccc12)NC12CC3CC(CC(C3)C1)C2
inactive: [6] 101 % of control | [7] 90 % of control

CCOP(=O)(OCC)C(=O)c1ccccc1
inactive: [3] 100 % of control | [4] 103 % of control | [5] 105 % of control

COc1cc2c(cc1CCCc1cc(OC)c(OC)c(OC)c1)OCO2
inactive: [6] 92 % of control | [7] 89 % of control | [11] 86 % of control

COc1cccc2c1C(=O)c1c(O)c3c(c(O)c1C2=O)CC1(O)CC3OC1(C)OC (stereo unspecified)
inactive: dose: 1.56 mg/kg/injection, schedule: Q01DX009 (ip), vehicle: other 104 % of control | dose: 3.13 mg/kg/injection, schedule: Q01DX009 (ip), vehicle: other 100 % of control | dose: 6.25 mg/kg/injection, schedule: Q01DX009 (ip), vehicle: other 96 % of control | dose: 12.5 mg/kg/injection, schedule: Q01DX009 (ip), vehicle: other 106 % of control | [10] 106 % of control | dose: 25.0 mg/kg/injection, schedule: Q04DX003 (ip), vehicle: water 101 % of control | dose: 50.0 mg/kg/injection, schedule: Q04DX003 (ip), vehicle: water 100 % of control | dose: 100.0 mg/kg/injection, schedule: Q04DX003 (ip), vehicle: water 100 % of control | dose: 200.0 mg/kg/injection, schedule: Q04DX003 (ip), vehicle: water 103 % of control | dose: 400.0 mg/kg/injection, schedule: Q04DX003 (ip), vehicle: water 99 % of control

CC(=O)Nn1c(N)nc2ccccc21
inactive: dose: 100.0 mg/kg/injection, schedule: Q04DX003 (ip), vehicle: saline 100 % of control | dose: 200.0 mg/kg/injection, schedule: Q04DX003 (ip), vehicle: saline 109 % of control | dose: 400.0 mg/kg/injection, schedule: Q04DX003 (ip), vehicle: saline 96 % of control

CC(=O)Nc1cc(C)ccc1O
inactive: dose: 100.0 mg/kg/injection, schedule: Q01DX009 (ip), vehicle: saline with Tween-80 95 % of control | [8] 100 % of control | [9] 95 % of control

CC(C)(Br)C(C)(C)OO
inactive: dose: 18.75 mg/kg/injection, schedule: Q04DX003 (ip), vehicle: Klucel (hydroxypropylcellulose) (HPC) 104 % of control | dose: 37.5 mg/kg/injection, schedule: Q04DX003 (ip), vehicle: Klucel (hydroxypropylcellulose) (HPC) 112 % of control | dose: 75.0 mg/kg/injection, schedule: Q04DX003 (ip), vehicle: Klucel (hydroxypropylcellulose) (HPC) 104 % of control

COC(=O)C12C3c4ccccc4C1C2c1ccccc13 (stereo unspecified)
inactive: dose: 100.0 mg/kg/injection, schedule: Q04DX002 (ip), vehicle: saline 99 % of control | dose: 200.0 mg/kg/injection, schedule: Q04DX002 (ip), vehicle: saline 94 % of control | dose: 400.0 mg/kg/injection, schedule: Q04DX002 (ip), vehicle: saline 96 % of control

C=C(C)C(O)CCCO[Si](c1ccccc1)(c1ccccc1)C(C)(C)C (stereo unspecified)
inactive: [6] 94 % of control | [7] 95 % of control | [11] 97 % of control

C=C1C(=O)OC2C(OC(=O)C(C)C)CCCC12 (stereo unspecified)
inactive: dose: 60.0 mg/kg/injection, schedule: Q01DX005 (ip), vehicle: Klucel (hydroxypropylcellulose) (HPC) 105 % of control | dose: 120.0 mg/kg/injection, schedule: Q01DX005 (ip), vehicle: Klucel (hydroxypropylcellulose) (HPC) 100 % of control | dose: 240.0 mg/kg/injection, schedule: Q01DX005 (ip), vehicle: Klucel (hydroxypropylcellulose) (HPC) 102 % of control
